Results: US7868135B2, “Compositions of lipopeptide antibiotic derivatives and methods of use thereof” (priority 2003, dated 2011)

Tests used:
Staphylococcus aureus = format: cell-based; conditions: for Post Antibiotic Effect (hours) 0.5 × MIC: exposure one hour at 0.5 × MIC, S. aureus log phase; for Post Antibiotic Effect (hours) 1 × MIC: exposure one hour at 1 × MIC; for Post Antibiotic Effect (hours) 2 × MIC: exposure one hour at 2 × MIC; for Post Antibiotic Effect (hours) 4 × MIC: exposure one hour at 4 × MIC
Experimental: An exemplary pharmacokinetic parameter to aid in characterizing the properties of lipopeptide derivative compounds of the disclosure is post-antibiotic effect (PAE) of a lipopeptide derivative. For example, a bacterial culture with an initial count of 10^6 to 10^7 colony forming units per ml (CFU/ml) is treated with a certain concentration of lipopetide derivative for a certain time and a parallel (control) culture is left untreated. After treatment, the lipopetide derivative is removed from the culture (e.g., by dilution 1:1000 in fresh, lipopetide derivative-free medium), and the untreated culture is manipulated in the same way. Then the cultures are further incubated and monitored for bacterial growth over time. […] By way of background and not wishing to be bound by theory, a lipopeptide derivative having a measurable PAE activity will likely provide additional time for the host immune system to remove bacteria that might have survived antibiotic treatment and reproduced after the antibiotic is degraded, removed or filtered from the circulatory system. A longer PAE can influence the clinical outcome of antimicrobial therapy (i.e., a lower dose of a lipopetide derivative may be used to treat an infection or the frequency of a dosing regimen can be reduced).
After removal of the lipopeptide compounds, bacterial titre was determined each hour to monitor bacterial re-growth. The PAE duration is defined as the difference in time required for antimicrobial exposed bacterial cells versus unexposed bacterial cells to achieve an increase of 1 log10 unit in CFU/mL.

[1] = Acute toxicity, maximum tolerated dose (MTD); conditions: Swiss CD1, mouse, in vivo, iv
Experimental: Another measure of toxicity is the maximum tolerated dose (MTD), which is determined as a dose level that is not accompanied by mortality or life-threatening toxicity. The dose ratio between toxic and therapeutic effect is the therapeutic index. […] The data obtained from these cell culture assays and animal studies can be used in formulating a dosage range that is not toxic for use in human subjects. […] The dosage may vary within this range depending upon the dosage form employed and the route of administration utilized. The exact formulation, route of administration and dosage can be chosen by the individual physician in view of the patient's condition or need thereof (see, e.g., Fingl et al., 1975, In: The Pharmacological Basis of Therapeutics, Chapter 1).
For example, to examine acute toxicity, lipopeptide antibiotics of the invention can be tested in an animal model, such as Swiss CD1 mice, to determine the MTD. In certain embodiments, the animals used to test toxicity of a particular compound can be approximately 5-6 weeks old at the start of the experiment and weigh 22-26 g. The lipopeptides may be administered intravenously (i.v.) into, for example, the caudal tail vein at dose levels that range from about 50 to about 500 mg/kg, or from about 75 to about 250 mg/kg, or from about 100 to about 200 mg/kg, or at a dose range at or below 100 mg/kg. The animals are generally observed immediately after administration, 1-2 hours post administration, 5-8 hours post administration, and once daily thereafter. Observations include both the activity level of the mouse as well as any physical side effects from the administered dose. The animal weight is recorded on day 0 (immediately before dosing) and on day 7.

[2] = system: S. pneumoniae (SPN 0032, ATCC 10813); assay: Intraperitoneal murine model of protection against infection (ED50, Table 21); format: in vivo, Streptococcus pneumoniae; conditions: Swiss CD1 mice infected i.p., compound i.v.
Source text: (§1) A variety of in vivo models may be used to assess the antimicrobial properties of lipopeptide derivative compounds of this disclosure. For example, antimicrobial compounds of the instant disclosure may be tested for efficacy by measuring a compound's ability to protect a mouse against a microbial infection, such as an infection or disease caused by or related to Gram-positive bacteria, including Staphylococcus aureus, Streptococcus pneumoniae, and Enterococcus faecalis. […] A certain period after infection, mice are then individually treated, for example intravenously (i.v.), with a lipopeptide derivative of this disclosure.
(§2) Antimicrobial lipopeptide derivatives of the instant invention were tested for antimicrobial activity against Gram-positive bacteria in an intraperitoneal (i.p.) murine model (i.e., bacteria were injected i.p. and lipopeptide compounds were administered intravenously (i.v.)). Mice were infected with Staphylococcus aureus, Streptococcus pneumoniae, or Enterococcus faecalis, which were prepared as follows: S. aureus Smith (SAU0017, ATCC 19636) were grown in culture overnight on trypticase soy broth, harvested and then resuspended in fresh media containing 5% mucin (Sigma Chemical Co.); S. pneumoniae (SPN 0032, ATCC 10813) were grown overnight on blood agar plates and re-suspended in 0.9% sterile saline; and E. faecalis EFS0040 (clinical isolate) were grown overnight in culture on blood heart infusion broth, washed and resuspended in 0.9% saline and mixed with equal volume of sterile fecal rat extract. Swiss CD1 mice were each infected i.p. with bacteria at the following doses: S. aureus at 10^6 CFU/mouse; S. pneumoniae at 10^2 CFU/mouse; or E. faecalis at 10^7.5 CFU/mouse. […] The ED50 for each compound was calculated using the method of Reed and Meunch (Am. J. Hyg. 27: 493, 1938).

[3] = system: E. faecalis EFS0040 (clinical isolate); assay: as above; format: in vivo, Enterococcus faecalis; conditions: Swiss CD1 mice infected i.p., compound i.v.
Source text: as §1, §2

[4] = system: Staphylococcus aureus (SAU0017); assay: Thigh infection model in neutropenic mice; format: in vivo; conditions: neutropenic Swiss CD1 mice, i.m. S. aureus, i.v. treatment two hours post-infection, thigh CFU at 24 hours
Experimental: Other exemplary in vivo models of infection that may be used to assess, for example, the efficacy of an antimicrobial lipopeptide of the instant disclosure include the following: (A) a mouse (murine) model of lung infection (pneumonia) wherein the bacterial infection is administered intranasally (i.n.); (B) a murine thigh muscle model wherein the bacterial infection is administered intramuscularly (i.m.) in normal or neutropenic (immunocompromised) mice; and (C) a combination murine thigh muscle model (i.m. infection)/lung (i.n.) infection.

SMILES	MIC used for the PAE experiment (Staphylococcus aureus)	Post Antibiotic Effect (hours) 0.5 × MIC (Staphylococcus aureus)	Post Antibiotic Effect (hours) 1 × MIC (Staphylococcus aureus)	Post Antibiotic Effect (hours) 2 × MIC (Staphylococcus aureus)	Post Antibiotic Effect (hours) 4 × MIC (Staphylococcus aureus)	MTD at 7 days [1]	ED50 in Mice, S. pneumoniae (SPN0032) [2]	ED50 in Mice, E. faecalis (EFS0040) [3]	ED50 [4]
CCCCCCCCCCCCCCC(=O)NC(CC(=O)O)C(=O)NC1C(=O)N2CCCCC2C(=O)NC(C(C)C(=O)O)C(=O)NC(CC(=O)O)C(=O)NCC(=O)NC(CC(=O)O)C(=O)NCC(=O)NC(C(C)NC(=O)CNC(=O)[C@@H](N)CCCCN)C(=O)NC(C(C)C)C(=O)N2CCCC2C(=O)NC1C (stereo partly shown) [Compound 4, C15-Amphomycin-9-Gly-Lys]	1 µg/mL	0.6 h	0.7 h	1.9 h	3.0 h	200 to 400 mg/kg			
CCCCCCCCCCCCCCC(=O)NC(CC(=O)O)C(=O)NC1C(=O)N2CCCCC2C(=O)NC(C(C)C(=O)O)C(=O)NC(CC(=O)O)C(=O)NCC(=O)NC(CC(=O)O)C(=O)NCC(=O)NC(C(C)NC(=O)CCN)C(=O)NC(C(C)C)C(=O)N2CCCC2C(=O)NC1C (stereo not drawn) [Compound 147, C15-Amphomycin-9-(β-Ala)]	1 µg/mL	1.6 h	1.6 h	1.9 h	1.0 h		0.65 mg/kg	0.8 mg/kg	1.1 to 1.8 mg/kg
CCCCCCCCCCCCCCC(=O)NC(CC(=O)O)C(=O)NC1C(=O)N2CCCCC2C(=O)NC(C(C)C(=O)O)C(=O)NC(CC(=O)O)C(=O)NCC(=O)NC(CC(=O)O)C(=O)NCC(=O)NC(C(C)NC(=O)CN(C)C(=O)[C@@H](N)CCCCN)C(=O)NC(C(C)C)C(=O)N2CCCC2C(=O)NC1C (stereo partly shown) [Compound 199, C15-Amphomycin-9-Sar-Lys]						200 to 400 mg/kg		3 mg/kg	
